Experimental data reported in US12637425B2, “Compounds and formulations for treating ophthalmic diseases” (Visus Therapeutics, Inc., priority 2020, dated 2026).

Target: T1, Recombinant cryAB(R120G) protein (Homo sapiens, UniProt P02511, R120G)
T1 sequence (P02511 1-175 R120G): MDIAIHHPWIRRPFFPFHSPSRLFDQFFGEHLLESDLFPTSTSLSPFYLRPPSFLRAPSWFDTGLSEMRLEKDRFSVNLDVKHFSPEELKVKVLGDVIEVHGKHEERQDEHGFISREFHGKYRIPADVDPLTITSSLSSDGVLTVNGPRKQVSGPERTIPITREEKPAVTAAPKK
Assay: Kinetic turbidity aggregation assay of recombinant cryAB(R120G)
Type: biochemical
Conditions: for inhibition at 25 µM: 25 μM compound, read-out: % Inhibition of Protein Aggregation, 25 μM cmpd; for inhibition at 25 µM / inhibition at 100 µM / inhibition at 400 µM: 15 μM cryAB(R120G), 42° C., absorbance at 550 nm; for inhibition at 100 µM: 100 μM compound, read-out: % Inhibition of Protein Aggregation, 100 μM cmpd; for inhibition at 400 µM: 400 μM compound, read-out: % Inhibition of Protein Aggregation, 400 μM cmpd; for IC50: inhibition of cryAB(R120G) protein aggregation
Experimental: Example A-1: Kinetic Turbidity Aggregation Assay of Recombinant cryAB(R120)
Recombinant cryAB(R120G) protein was diluted to 100 μM in assay buffer (50 mM Tris, 100 mM NaCl, 5 mM DTT, 0.01% Triton X-100, 0.05% PEG-8000). Compounds were dissolved in DMSO at 10 mM then typically diluted to 2.5 mM in DMSO and serially diluted 2-fold as necessary. To a 384-well black microplate in quadruplicate was added 81 μL assay buffer, followed by 15 μL protein solution, and 4 μL compound to give a final concentration of 15 μM cryAB(R120G) protein in 4% DMSO. […] N.D. is not determined.

| SMILES | inhibition at 25 µM [%] | inhibition at 100 µM [%] | inhibition at 400 µM [%] | IC50 [µM] |
| --- | --- | --- | --- | --- |
| Cn1cc([C@@H](CNS(=O)(=O)c2ccc3cc[nH]c3c2)N2CCCC2)c2cnccc21 [Compound 80, (S)-N-(2-(1-methyl-1H-pyrrolo[3,2-c]pyridin-3-yl)-2-(pyrrolidin-1-yl)ethyl)-1H-indole-6-sulfonamide] | -28 | 95.1 |  |  |
| Cc1ccc2c(c1)c(C(CNS(=O)(=O)c1ccc3cc[nH]c3c1)N(C)C)cn2C (stereo not shown) [Compound 21, N-(2-(1,5-dimethyl-1H-indol-3-yl)-2-(dimethylamino)ethyl)-1H-indole-6-sulfonamide] | 76 | 99.8 | 90.7 |  |
| CN(C)C(CNS(=O)(=O)c1ccc2cc[nH]c2c1)c1ccc2[nH]ncc2c1 (stereo not shown) [Compound 3, N-(2-(dimethylamino)-2-(1H-indazol-5-yl)ethyl)-1H-indole-6-sulfonamide] | 58 | 83.7 | 99.1 |  |
| CCn1nc([C@@H](CNS(=O)(=O)c2ccc3cc[nH]c3c2)N2CCC2)c2ccccc21 [Compound 94, (R)-N-(2-(azetidin-1-yl)-2-(1-ethyl-1H-indazol-3-yl)ethyl)-1H-indole-6-sulfonamide] | 97.7 | 99.1 |  |  |
| COc1ccc2[nH]ccc2c1S(=O)(=O)NCC(c1cn(C)c2ccccc12)N(C)C (stereo not shown) [Compound 97, N-(2-(dimethylamino)-2-(1-methyl-1H-indol-3-yl)ethyl)-5-methoxy-1H-indole-4-sulfonamide] | -45 | 58.8 |  |  |
| CN(C)C(CNS(=O)(=O)c1ccc2cc[nH]c2c1)c1nn(C)c2ccccc12 (stereo not shown) [Compound 19, N-(2-(dimethylamino)-2-(1-methyl-1H-indazol-3-yl)ethyl)-1H-indole-6-sulfonamide] | 34 | 81.5 | 99.9 | 10 to 50 |
| C[C@@H]1CCCN1[C@H](CNS(=O)(=O)c1ccc2cc[nH]c2c1)c1cn(C)c2ccccc12 [Compound 53, N-((S)-2-(1-methyl-1H-indol-3-yl)-2-((R)-2-methylpyrrolidin-1-yl)ethyl)-1H-indole-6-sulfonamide] | 99.6 | 99.9 |  | ≤ 10 |
| Cn1nc([C@@H](CNS(=O)(=O)c2ccc3cc[nH]c3c2)N2CCCC2)c2ccccc21 [Compound 89, (R)-N-(2-(1-methyl-1H-indazol-3-yl)-2-(pyrrolidin-1-yl)ethyl)-1H-indole-6-sulfonamide] | 98.4 | 99.7 |  | ≤ 10 |
| C[C@H]1CCCN1[C@H](CNS(=O)(=O)c1ccc2cc[nH]c2c1)c1cn(C)c2ccccc12 [Compound 64, N-((S)-2-(1-methyl-1H-indol-3-yl)-2-((S)-2-methylpyrrolidin-1-yl)ethyl)-1H-indole-6-sulfonamide] | 9 | 95.4 |  |  |
| Cn1cc(C(CNS(=O)(=O)c2ccc3cc[nH]c3c2)N2CC[C@@H](F)C2)c2ccccc21 (stereo partly drawn) [Compound 45, N-(2-((R)-3-fluoropyrrolidin-1-yl)-2-(1-methyl-1H-indol-3-yl)ethyl)-1H-indole-6-sulfonamide] | 95 | 69.3 |  |  |
| CCN(CC)C(CNS(=O)(=O)c1ccc2cc[nH]c2c1)c1cn(C)c2ccccc12 (stereo not shown) [Compound 38, N-(2-(diethylamino)-2-(1-methyl-1H-indol-3-yl)ethyl)-1H-indole-6-sulfonamide] | 57 | 99.8 |  | 10 to 50 |
| CN(CCO)C(CNS(=O)(=O)c1ccc2cc[nH]c2c1)c1cn(C)c2ccccc12 (stereo not shown) [Compound 32, N-(2-((2-hydroxyethyl)(methyl)amino)-2-(1-methyl-1H-indol-3-yl)ethyl)-1H-indole-6-sulfonamide] | 60 | 98.5 |  | 10 to 50 |
| CN(C)C(CNS(=O)(=O)c1ccc2cn[nH]c2c1)c1cn(C)c2ccccc12 (stereo not shown) [Compound 7, N-(2-(dimethylamino)-2-(1-methyl-1H-indol-3-yl)ethyl)-1H-indazole-6-sulfonamide] | -21 | -32 | 56.6 |  |
| CN1CCN(C(CNS(=O)(=O)c2ccc3cc[nH]c3c2)c2cn(C)c3ccccc23)CC1 (stereo not shown) [Compound 39, N-(2-(1-methyl-1H-indol-3-yl)-2-(4-methylpiperazin-1-yl)ethyl)-1H-indole-6-sulfonamide] | 18 | 82.5 |  |  |
| CC(C)n1cc(C(CNS(=O)(=O)c2cccc3[nH]ccc23)N(C)C)c2ccccc21 (stereo not shown) [Compound 13, N-(2-(dimethylamino)-2-(1-isopropyl-1H-indol-3-yl)ethyl)-1H-indole-4-sulfonamide] | -6 | 32.7 | 94.7 |  |
| CC(=O)N[C@H]1CCN(C(CNS(=O)(=O)c2ccc3cc[nH]c3c2)c2cn(C)c3ccccc23)C1 (stereo partly drawn) [Compound 35, N-((3S)-1-(2-(1H-indole-6-sulfonamido)-1-(1-methyl-1H-indol-3-yl)ethyl)pyrrolidin-3-yl)acetamide] | -19 | 41.7 |  |  |
| Cn1cc(C(CNS(=O)(=O)c2ccc3cc[nH]c3c2)N2CCOCC2)c2ccccc21 (stereo not shown) [Compound 30, N-(2-(1-methyl-1H-indol-3-yl)-2-morpholinoethyl)-1H-indole-6-sulfonamide] | -28 | 82 |  |  |
| CO[C@@H]1CCN([C@H](CNS(=O)(=O)c2ccc3cc[nH]c3c2)c2cn(C)c3ccccc23)C1 [Compound 74, N-((S)-2-((R)-3-methoxypyrrolidin-1-yl)-2-(1-methyl-1H-indol-3-yl)ethyl)-1H-indole-6-sulfonamide] | 40 | 99.9 |  |  |
| C[C@@H]1CCCN1[C@@H](CNS(=O)(=O)c1ccc2cc[nH]c2c1)c1cn(C)c2ccccc12 [Compound 55, N-((R)-2-(1-methyl-1H-indol-3-yl)-2-((R)-2-methylpyrrolidin-1-yl)ethyl)-1H-indole-6-sulfonamide] | 33 | 99.6 |  | 50 to 100 |
| CN(Cc1cncs1)[C@@H](CNS(=O)(=O)c1ccc2cc[nH]c2c1)c1cn(C)c2ccccc12 [Compound 87, (R)-N-(2-(methyl(thiazol-5-ylmethyl)amino)-2-(1-methyl-1H-indol-3-yl)ethyl)-1H-indole-6-sulfonamide] | 47 | 83.2 |  |  |
| CN(C)C(CNS(=O)(=O)c1ccc2cc[nH]c2c1)c1cn(Cc2cncs2)c2ccccc12 (stereo not shown) [Compound 69, N-(2-(dimethylamino)-2-(1-(thiazol-5-ylmethyl)-1H-indol-3-yl)ethyl)-1H-indole-6-sulfonamide] | 58 | 100 |  |  |
| Cn1cc([C@@H](CNS(=O)(=O)c2ccc3cc[nH]c3c2)N2CC[C@@H](c3ccccc3)C2)c2ccccc21 [Compound 58, N-((S)-2-(1-methyl-1H-indol-3-yl)-2-((S)-3-phenylpyrrolidin-1-yl)ethyl)-1H-indole-6-sulfonamide] | -8 | 66.7 |  |  |
| C[C@H]1CCCN1C(CNS(=O)(=O)c1ccc2cc[nH]c2c1)c1cn(C)c2ccccc12 (stereo partly shown) [Compound 48] | 23 | 76.9 |  |  |
| CN(C)C(CNS(=O)(=O)c1ccc2cc[nH]c2c1)c1cn(C)c2ccc(F)cc12 (stereo not shown) [Compound 20, N-(2-(dimethylamino)-2-(5-fluoro-1-methyl-1H-indol-3-yl)ethyl)-1H-indole-6-sulfonamide] | 49 | 99.2 | 93.4 |  |
| Cn1cc([C@H](CNS(=O)(=O)c2ccc3cc[nH]c3c2)N2CCCC2)c2cnccc21 [Compound 81, (R)-N-(2-(1-methyl-1H-pyrrolo[3,2-c]pyridin-3-yl)-2-(pyrrolidin-1-yl)ethyl)-1H-indole-6-sulfonamide] | -12 | 23 |  |  |
| CN(C)C(CNS(=O)(=O)c1ccc2cc[nH]c2c1)c1cccc2cccnc12 (stereo not shown) [Compound 57, N-(2-(dimethylamino)-2-(quinolin-8-yl)ethyl)-1H-indole-6-sulfonamide] | 25 | 82.4 |  |  |
| Cn1nc([C@@H](CNS(=O)(=O)c2ccc3cc[nH]c3c2)N2CCC2)c2ccccc21 [Compound 98, (R)-N-(2-(azetidin-1-yl)-2-(1-methyl-1H-indazol-3-yl)ethyl)-1H-indole-6-sulfonamide] | 92.9 | 99.1 |  |  |
| C[C@@H]1CCN([C@@H](CNS(=O)(=O)c2ccc3cc[nH]c3c2)c2cn(C)c3ccccc23)C1 [Compound 77, N-((R)-2-(1-methyl-1H-indol-3-yl)-2-((R)-3-methylpyrrolidin-1-yl)ethyl)-1H-indole-6-sulfonamide] | 88 | 100 |  |  |
| Cn1cc(C(CNS(=O)(=O)c2ccc3cc[nH]c3c2)Nc2ccccc2)c2ccccc21 (stereo not shown) [Compound 51, N-(2-(1-methyl-1H-indol-3-yl)-2-(phenylamino)ethyl)-1H-indole-6-sulfonamide] | 46 | 80.4 |  |  |
